From paper PMC11864979, “First-in-class ultralong-target-residence-time p38α inhibitors as a mitosis-targeted therapy for colorectal cancer” (Nature Cancer, 2025) come the findings set out here.

What all share (experiment): selectivity profiling in a panel of 340 wild-type kinases (Reaction Biology Europe)
Holding throughout (type): binding

Experiment [1] concerns the target T1, 340 wild-type kinases (Homo sapiens, UniProt O14757).
T1 construct: purchased Reaction Biology Europe
T1 sequence (O14757 1-476): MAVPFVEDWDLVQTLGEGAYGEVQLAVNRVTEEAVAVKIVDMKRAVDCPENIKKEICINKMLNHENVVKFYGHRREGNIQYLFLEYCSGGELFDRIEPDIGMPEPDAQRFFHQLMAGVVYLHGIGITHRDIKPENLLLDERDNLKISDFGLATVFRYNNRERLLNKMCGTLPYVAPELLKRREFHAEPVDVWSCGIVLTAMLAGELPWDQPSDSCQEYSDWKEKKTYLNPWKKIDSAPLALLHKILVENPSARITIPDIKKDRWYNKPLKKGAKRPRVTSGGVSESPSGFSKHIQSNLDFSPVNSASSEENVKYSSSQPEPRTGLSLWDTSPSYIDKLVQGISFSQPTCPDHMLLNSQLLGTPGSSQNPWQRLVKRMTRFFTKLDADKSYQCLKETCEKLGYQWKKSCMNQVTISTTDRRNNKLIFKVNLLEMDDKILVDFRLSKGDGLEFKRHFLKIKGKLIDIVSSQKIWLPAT

Experiment [2] concerns the target T2, 340 wild-type kinases (Homo sapiens, UniProt P08631).
T2 construct: purchased Reaction Biology Europe

Experiment [3] deals with T3, 340 wild-type kinases (Homo sapiens, UniProt P48729).
T3 construct: purchased Reaction Biology Europe

In experiment [4] the target is T4, 340 wild-type kinases (Homo sapiens, UniProt Q13464).
T4 construct: purchased Reaction Biology Europe

Experiment [5] addresses T5, 340 wild-type kinases (Homo sapiens, UniProt Q13470).
T5 construct: purchased Reaction Biology Europe
T5 sequence (Q13470 1-666): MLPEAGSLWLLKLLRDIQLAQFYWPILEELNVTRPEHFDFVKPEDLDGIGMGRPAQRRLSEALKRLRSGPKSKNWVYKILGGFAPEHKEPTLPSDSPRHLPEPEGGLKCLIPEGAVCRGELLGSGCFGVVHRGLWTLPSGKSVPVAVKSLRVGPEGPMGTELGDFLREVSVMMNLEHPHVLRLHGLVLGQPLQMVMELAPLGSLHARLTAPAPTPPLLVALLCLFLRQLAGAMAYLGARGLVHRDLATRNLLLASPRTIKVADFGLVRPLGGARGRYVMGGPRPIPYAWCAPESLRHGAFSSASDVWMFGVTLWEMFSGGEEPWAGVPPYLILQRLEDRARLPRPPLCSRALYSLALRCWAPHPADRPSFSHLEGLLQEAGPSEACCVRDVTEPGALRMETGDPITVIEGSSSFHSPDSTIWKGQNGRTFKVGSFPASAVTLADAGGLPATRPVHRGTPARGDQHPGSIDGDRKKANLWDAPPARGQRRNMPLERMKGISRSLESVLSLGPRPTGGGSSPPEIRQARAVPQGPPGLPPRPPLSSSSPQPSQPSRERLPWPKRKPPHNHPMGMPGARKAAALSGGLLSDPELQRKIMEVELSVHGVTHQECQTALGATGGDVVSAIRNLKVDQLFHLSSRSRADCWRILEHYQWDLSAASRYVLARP

The target in experiment [6] is T6, 340 wild-type kinases (Homo sapiens, UniProt Q9UHD2).
T6 construct: purchased Reaction Biology Europe
T6 sequence (Q9UHD2 1-729): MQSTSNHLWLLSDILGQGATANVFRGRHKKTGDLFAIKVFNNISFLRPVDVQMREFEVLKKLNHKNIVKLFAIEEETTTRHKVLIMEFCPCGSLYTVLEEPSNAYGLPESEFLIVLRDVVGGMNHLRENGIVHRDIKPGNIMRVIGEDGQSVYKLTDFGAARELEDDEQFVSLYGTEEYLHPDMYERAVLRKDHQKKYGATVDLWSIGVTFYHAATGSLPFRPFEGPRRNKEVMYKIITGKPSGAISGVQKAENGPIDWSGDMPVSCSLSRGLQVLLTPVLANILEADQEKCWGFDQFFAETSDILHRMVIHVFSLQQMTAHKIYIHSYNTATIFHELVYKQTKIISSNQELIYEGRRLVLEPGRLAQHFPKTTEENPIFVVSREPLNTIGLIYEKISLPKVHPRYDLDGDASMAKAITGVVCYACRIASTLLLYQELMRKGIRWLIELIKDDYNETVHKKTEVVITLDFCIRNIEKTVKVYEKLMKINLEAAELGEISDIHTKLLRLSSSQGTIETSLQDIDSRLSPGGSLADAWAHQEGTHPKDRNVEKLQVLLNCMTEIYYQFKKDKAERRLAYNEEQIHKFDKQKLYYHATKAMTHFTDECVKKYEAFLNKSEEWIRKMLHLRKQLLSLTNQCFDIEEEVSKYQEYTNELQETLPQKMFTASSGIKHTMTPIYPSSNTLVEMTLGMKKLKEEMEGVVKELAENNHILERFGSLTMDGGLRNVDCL

Like-named read-outs stand apart in the source and are kept apart here.

T4 sequence (Q13464 whole entry): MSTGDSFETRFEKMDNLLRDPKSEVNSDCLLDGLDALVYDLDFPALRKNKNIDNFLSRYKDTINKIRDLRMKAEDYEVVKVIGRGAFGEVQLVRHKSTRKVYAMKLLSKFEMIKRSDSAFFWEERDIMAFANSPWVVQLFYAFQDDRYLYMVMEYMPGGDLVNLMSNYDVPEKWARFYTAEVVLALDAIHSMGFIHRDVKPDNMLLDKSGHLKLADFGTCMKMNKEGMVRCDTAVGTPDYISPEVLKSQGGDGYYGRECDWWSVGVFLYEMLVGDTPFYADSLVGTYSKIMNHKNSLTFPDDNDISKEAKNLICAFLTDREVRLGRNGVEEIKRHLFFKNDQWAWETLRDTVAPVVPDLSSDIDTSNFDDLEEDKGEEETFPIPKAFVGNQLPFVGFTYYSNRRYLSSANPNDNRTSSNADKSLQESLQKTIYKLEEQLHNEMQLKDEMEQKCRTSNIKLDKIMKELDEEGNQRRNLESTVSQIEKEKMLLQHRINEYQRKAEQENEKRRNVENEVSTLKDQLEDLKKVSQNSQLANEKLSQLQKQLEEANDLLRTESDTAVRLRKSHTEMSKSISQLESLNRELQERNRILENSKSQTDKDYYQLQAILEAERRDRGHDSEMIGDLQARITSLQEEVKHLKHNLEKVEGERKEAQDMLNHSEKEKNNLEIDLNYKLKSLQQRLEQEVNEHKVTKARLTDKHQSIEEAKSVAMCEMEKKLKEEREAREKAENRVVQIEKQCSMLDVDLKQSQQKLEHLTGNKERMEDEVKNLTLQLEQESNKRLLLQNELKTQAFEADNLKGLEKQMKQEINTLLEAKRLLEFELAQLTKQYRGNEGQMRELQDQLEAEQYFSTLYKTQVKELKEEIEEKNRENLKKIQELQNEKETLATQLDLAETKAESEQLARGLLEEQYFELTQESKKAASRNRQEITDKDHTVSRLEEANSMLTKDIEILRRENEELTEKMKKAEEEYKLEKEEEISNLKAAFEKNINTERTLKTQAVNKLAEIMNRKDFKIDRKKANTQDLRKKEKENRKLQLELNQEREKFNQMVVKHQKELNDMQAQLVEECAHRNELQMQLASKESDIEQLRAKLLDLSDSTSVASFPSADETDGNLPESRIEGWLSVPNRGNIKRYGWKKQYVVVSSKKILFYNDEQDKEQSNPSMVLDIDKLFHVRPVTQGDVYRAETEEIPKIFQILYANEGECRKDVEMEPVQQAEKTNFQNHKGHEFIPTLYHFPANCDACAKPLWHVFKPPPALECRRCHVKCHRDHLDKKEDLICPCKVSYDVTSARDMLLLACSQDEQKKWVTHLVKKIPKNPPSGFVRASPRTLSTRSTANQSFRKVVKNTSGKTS
T2 sequence (P08631 whole entry): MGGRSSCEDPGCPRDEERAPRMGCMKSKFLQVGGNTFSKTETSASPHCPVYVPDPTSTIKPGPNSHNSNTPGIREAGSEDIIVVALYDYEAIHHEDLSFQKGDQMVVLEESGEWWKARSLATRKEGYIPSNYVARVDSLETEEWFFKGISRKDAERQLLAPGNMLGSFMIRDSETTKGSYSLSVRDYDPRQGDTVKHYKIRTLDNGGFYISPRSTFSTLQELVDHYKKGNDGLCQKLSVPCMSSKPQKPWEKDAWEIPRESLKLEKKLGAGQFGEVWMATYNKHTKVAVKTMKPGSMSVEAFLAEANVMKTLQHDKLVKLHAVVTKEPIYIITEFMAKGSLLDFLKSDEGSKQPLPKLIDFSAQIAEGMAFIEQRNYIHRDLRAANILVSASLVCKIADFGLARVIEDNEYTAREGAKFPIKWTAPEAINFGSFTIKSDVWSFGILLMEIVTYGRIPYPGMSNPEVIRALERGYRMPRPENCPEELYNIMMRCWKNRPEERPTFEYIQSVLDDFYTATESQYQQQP
T3 sequence (P48729 whole entry): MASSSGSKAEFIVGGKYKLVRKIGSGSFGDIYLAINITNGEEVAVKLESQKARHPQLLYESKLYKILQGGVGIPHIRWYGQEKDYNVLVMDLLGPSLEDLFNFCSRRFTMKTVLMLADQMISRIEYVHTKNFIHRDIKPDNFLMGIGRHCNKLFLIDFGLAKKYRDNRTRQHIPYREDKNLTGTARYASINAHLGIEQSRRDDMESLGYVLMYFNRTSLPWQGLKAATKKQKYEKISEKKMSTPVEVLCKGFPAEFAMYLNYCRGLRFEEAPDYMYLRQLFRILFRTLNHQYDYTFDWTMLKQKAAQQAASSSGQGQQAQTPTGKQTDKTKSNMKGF

For the compound `CNC(=O)c1ccc2c(c1)C(=O)c1ccc(Nc3ccc(F)c(NC(=O)C4CC4)c3)cc1CC2` [Compound 2015], the remaining activity at 0.2 µM on 340 wild-type kinases [1] (0.2 µM 2015, read-out: CHK1 residual activity) was found to be 88.2%; on 340 wild-type kinases [1] (CHK1, 0.2 µM, read-out: residual activity), 88.2%; on 340 wild-type kinases [2] (0.2 µM 2015, read-out: HCK residual activity), 124%; on 340 wild-type kinases [2] (HCK, 0.2 µM, read-out: residual activity) it was 124%; at 340 wild-type kinases [3] (0.2 µM 2015, read-out: CK1alpha1 residual activity), 98.6%; at 340 wild-type kinases [3] (CK1alpha1, 0.2 µM, read-out: residual activity) it was 98.6%. In addition, the remaining activity at 0.2 µM at 340 wild-type kinases [4] (0.2 µM 2015, read-out: ROCK1 residual activity) came to 95.1%; at 340 wild-type kinases [4] (ROCK1, 0.2 µM, read-out: residual activity), 95.1%; at 340 wild-type kinases [5] (0.2 µM 2015, read-out: TNK1 residual activity), 92.8%; at 340 wild-type kinases [5] (TNK1, 0.2 µM, read-out: residual activity) it was 92.8%; on 340 wild-type kinases [6] (0.2 µM 2015, read-out: TBK1 residual activity), 120%; at 340 wild-type kinases [6] (TBK1, 0.2 µM, read-out: residual activity), 120%. Besides, the remaining activity at 1 µM was 87.9% on 340 wild-type kinases [1] (1 µM 2015, read-out: CHK1 residual activity); 87.8% on 340 wild-type kinases [1] (CHK1, 1 µM, read-out: residual activity); 109% at 340 wild-type kinases [2] (1 µM 2015, read-out: HCK residual activity); 109% at 340 wild-type kinases [2] (HCK, 1 µM, read-out: residual activity); 94.9% on 340 wild-type kinases [3] (CK1alpha1, 1 µM, read-out: residual activity); 87.2% on 340 wild-type kinases [4] (1 µM 2015, read-out: ROCK1 residual activity). For the same compound, the remaining activity at 1 µM on 340 wild-type kinases [4] (ROCK1, 1 µM, read-out: residual activity) came to 87.2%; on 340 wild-type kinases [5] (1 µM 2015, read-out: TNK1 residual activity), 85.3%; at 340 wild-type kinases [5] (TNK1, 1 µM, read-out: residual activity) it was 85.3%; at 340 wild-type kinases [6] (1 µM 2015, read-out: TBK1 residual activity), 101%; on 340 wild-type kinases [6] (TBK1, 1 µM, read-out: residual activity), 101%.
